“And” between values parts separate entries of the source, which are not always exact repeats. Equal values may be shown once. Inconclusive results and toxic doses are left out. Rule for the calls: active = survival T/C of 150% or more; inactive = T/C below 125% in these data.
Tested on: BDF1 mice, B16 melanoma ip, median survival T/C
Assay: NCI In Vivo Anticancer Drug Screen. Data for tumor model B16 Melanoma (intraperitoneal) in B6D2F1 (BDF1) mice
Details: endpoint: median survival time, higher = longer survival
Outline: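 Antitumor activity is assessed in mice bearing a transplanted tumor, with survival or tumor size compared against vehicle-dosed controls and expressed as T/C.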

[1] = dose: 100.0 mg/kg/injection, schedule: Q04DX003 (ip), vehicle: Klucel (hydroxypropylcellulose) (HPC)
[2] = dose: 200.0 mg/kg/injection, schedule: Q04DX003 (ip), vehicle: Klucel (hydroxypropylcellulose) (HPC)
[3] = dose: 400.0 mg/kg/injection, schedule: Q04DX003 (ip), vehicle: Klucel (hydroxypropylcellulose) (HPC)
[4] = dose: 100.0 mg/kg/injection, schedule: Q01DX009 (ip), vehicle: saline with Tween-80
[5] = dose: 200.0 mg/kg/injection, schedule: Q01DX009 (ip), vehicle: saline with Tween-80
[6] = dose: 400.0 mg/kg/injection, schedule: Q01DX009 (ip), vehicle: saline with Tween-80
[7] = dose: 50.0 mg/kg/injection, schedule: Q01DX009 (ip), vehicle: saline with Tween-80
[8] = dose: 100.0 mg/kg/injection, schedule: Q01DX009 (ip), vehicle: Klucel (hydroxypropylcellulose) (HPC)
[9] = dose: 200.0 mg/kg/injection, schedule: Q01DX009 (ip), vehicle: Klucel (hydroxypropylcellulose) (HPC)

Measured: T/C

O=C1CC(CO)CN1CCc1ccccc1 (stereo not drawn)
inactive: [1] 110 % of control | [2] 107 % of control | [3] 102 % of control

O=[N+]([O-])O.O=[N+]([O-])O.[O]=[Zr]
inactive: dose: 12.5 mg/kg/injection, schedule: Q04DX003 (ip), vehicle: saline 97 % of control | dose: 25.0 mg/kg/injection, schedule: Q04DX003 (ip), vehicle: saline 90 % of control | dose: 50.0 mg/kg/injection, schedule: Q04DX003 (ip), vehicle: saline 95 % of control

Cc1ccc(NC(=O)c2ccc(Cl)cc2Cl)cc1Cl
inactive: [1] 102 % of control | [2] 92 % of control | [3] 95 % of control

Cc1cccc(C)c1NC(=O)C(C)C
inactive: [4] 100 % of control | [5] 102 % of control | [6] 95 % of control

CC(=O)OC1CCC(C(C)(C)C)CC1 (stereo not drawn)
inactive: [7] 113 % of control | [4] 91 % of control

NC(=O)/C=C/C(=O)c1c(Cl)cccc1Cl
inactive: dose: 0.78 mg/kg/injection, schedule: Q01DX009 (ip), vehicle: saline with Tween-80 103 % of control | dose: 1.56 mg/kg/injection, schedule: Q01DX009 (ip), vehicle: saline with Tween-80 106 % of control | dose: 3.12 mg/kg/injection, schedule: Q01DX009 (ip), vehicle: saline with Tween-80 112 % of control

COc1ccccc1NC(=O)Nc1ccccc1OC
inactive: [8] 89 % of control | [9] 89 % of control | dose: 400.0 mg/kg/injection, schedule: Q01DX009 (ip), vehicle: Klucel (hydroxypropylcellulose) (HPC) 88 % of control

COc1ccc(OC(=O)Nc2ccccc2Cl)cc1
inactive: [1] 106 % of control | [2] 103 % of control | [3] 103 % of control

CC12CCC(OC3OC(CO)C(OC4OC(CO)C(O)C(O)C4O)C(O)C3O)CC1CCC1C2CCC2(C)C(C3=CC(=O)OC3)CCC12O (stereo not drawn)
inactive: dose: 6.0 mg/kg/injection, schedule: Q01DX009 (ip), vehicle: saline 102 % of control | dose: 12.0 mg/kg/injection, schedule: Q01DX009 (ip), vehicle: saline 114 % of control | dose: 24.0 mg/kg/injection, schedule: Q01DX009 (ip), vehicle: saline 102 % of control | dose: 48.0 mg/kg/injection, schedule: Q01DX009 (ip), vehicle: saline 92 % of control

CC(=O)N(C(C)=O)c1ccc(N=Nc2ccccc2C)cc1C
inactive: dose: 12.5 mg/kg/injection, schedule: Q01DX009 (ip), vehicle: Klucel (hydroxypropylcellulose) (HPC) 94 % of control | dose: 25.0 mg/kg/injection, schedule: Q01DX009 (ip), vehicle: Klucel (hydroxypropylcellulose) (HPC) 117 % of control | dose: 50.0 mg/kg/injection, schedule: Q01DX009 (ip), vehicle: Klucel (hydroxypropylcellulose) (HPC) 100 % of control | [8] 100 % of control | [9] 87 % of control

COc1ccc2c(=O)c(C)c(C)oc2c1CN1CCOCC1
inactive: dose: 0.39 mg/kg/injection, schedule: Q01DX009 (ip), vehicle: saline 104 % of control | dose: 0.78 mg/kg/injection, schedule: Q01DX009 (ip), vehicle: saline 114 % of control | dose: 1.56 mg/kg/injection, schedule: Q01DX009 (ip), vehicle: saline 108 % of control | dose: 3.12 mg/kg/injection, schedule: Q01DX009 (ip), vehicle: saline 98 % of control | dose: 6.25 mg/kg/injection, schedule: Q01DX009 (ip), vehicle: saline 115 % of control

CCCCOC(=O)c1ccc(NC(=O)Nc2ccccc2Cl)cc1
inactive: dose: 12.5 mg/kg/injection, schedule: Q01DX009 (ip), vehicle: saline with Tween-80 102 % of control | dose: 25.0 mg/kg/injection, schedule: Q01DX009 (ip), vehicle: saline with Tween-80 102 % of control | [7] 88 % of control and 100 % of control

CCCCCCCCCCCCCCCCCS(=O)S(=O)O (stereo not drawn)
inactive: [4] 113 % of control | [5] 97 % of control | [6] 95 % of control

CC(=O)OCC1OC(n2ncc(=O)[nH]c2=O)C(OC(C)=O)C1OC(C)=O (stereo not drawn)
inactive: [7] 106 % of control | [4] 91 % of control | [5] 95 % of control | [6] 102 % of control | dose: 800.0 mg/kg/injection, schedule: Q01DX009 (ip), vehicle: saline with Tween-80 100 % of control

CSc1ccc(N=Cc2ccc3c(c2)OCO3)cc1
inactive: [8] 90 % of control | [9] 88 % of control

CC1=CC(=O)C(O)C2(C)C1CC(O)C13COC4(C)C(OC(=O)C41)C(O)C23 (stereo not drawn)
inactive: dose: 1.0 mg/kg/injection, schedule: Q01DX009 (ip), vehicle: saline with Tween-80 97 % of control | dose: 2.0 mg/kg/injection, schedule: Q01DX009 (ip), vehicle: saline with Tween-80 101 % of control | dose: 4.0 mg/kg/injection, schedule: Q01DX009 (ip), vehicle: saline with Tween-80 97 % of control
